# Where “and” joins values, the source holds several entries; their conditions need not be identical. Identical values can stand only once.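 Briefly, cells in 96-well plates were exposed to five compound concentrations for 48 h, and endpoints were estimated by linear interpolation. Here, GI50 denotes the concentration required for 50% inhibition of growth. At the TGI there is no net growth.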
# Assays:
# Assay in all cases: inhibition of tumour cell growth, NCI panel, 48 h
# [1] = test system: CCRF-CEM leukemia
# [2] = test system: UACC-62 melanoma
# [3] = test system: HCT-116 colon
# [4] = test system: NCI/ADR-RES ovarian
# [5] = test system: SNB-19 CNS
# [6] = test system: HL-60(TB) leukemia
# [7] = test system: SF-539 CNS
# [8] = test system: HOP-92 NSCLC
# [9] = test system: RXF 393 renal
# [10] = test system: OVCAR-4 ovarian
Structure (SMILES),TGI [1],TGI [2],TGI [3],TGI [4],TGI [5],TGI [6],TGI [7],TGI [8],TGI [9],TGI [10],GI50 [1],GI50 [3],GI50 [5],GI50 [7],GI50 [8],GI50 [9],GI50 [10],GI50 [2],GI50 [4],GI50 [6]
O=C(O)/C=C\C(=O)Nc1ccc2c(c1)C(=O)c1cc(F)ccc1-2,> 100 µM,> 100 µM,> 100 µM,> 100 µM,> 100 µM,> 100 µM,> 100 µM,> 100 µM,> 100 µM,> 100 µM,,,,,,,,,,
CC(=O)OCC1OC(n2c(-c3ccccc3)c(C)c(C)c(C#N)c2=S)C(OC(C)=O)C(OC(C)=O)C1OC(C)=O (stereo unspecified),> 100 µM,> 50 µM and 43.5 µM,21.6 µM and > 100 µM,> 100 µM,> 100 µM,> 100 µM,36.8 µM and > 100 µM,24 µM,> 100 µM,34.1 µM and > 100 µM,49.2 µM and > 100 µM,11.4 µM and 40.1 µM,17.9 µM and 44.9 µM,14.4 µM and > 100 µM,0.0211 µM,23.8 µM and 68.3 µM,14.8 µM and 76.1 µM,,,
O=C(Nc1ccc(Br)cc1F)c1cc(Br)ccc1O,> 44.4 µM,1.23 µM,4.28 µM,5.44 µM,27.9 µM,3.59 µM,4.64 µM,0.651 µM,3.33 µM,25.3 µM,2.03 µM,0.732 µM,0.502 µM,0.552 µM,0.177 µM,0.661 µM,0.604 µM,0.303 µM,0.876 µM,0.59 µM
COc1ccc(/C=C/C(=O)c2ccc(Nc3ccnc4cc(Cl)ccc34)cc2)cc1,> 100 µM,> 100 µM,> 100 µM,> 100 µM,> 100 µM,> 35 µM,> 100 µM,> 100 µM,> 100 µM,> 100 µM,5.64 µM,0.412 µM,> 100 µM,> 100 µM,> 100 µM,> 100 µM,> 100 µM,62.6 µM,> 100 µM,
CN1CCCCC1CCN1c2ccccc2Sc2ccc(S(C)=O)cc21 (stereo unspecified),> 100 µM,> 100 µM,> 100 µM,> 100 µM,> 100 µM,> 100 µM,> 100 µM,> 100 µM,> 100 µM,> 100 µM,,,,,,,,,,
CC/C=C\C/C=C\C[C@H]1C/C=C2/C(=O)C=C[C@H]2C/C=C\CCC(=O)O1,13 µM,5.47 µM,> 14.3 µM,> 14.3 µM,> 14.3 µM,12.2 µM,> 14.3 µM,8.01 µM,4.61 µM,> 14.3 µM,2.89 µM,3.63 µM,5.04 µM,4.44 µM,2.72 µM,2.28 µM,5.22 µM,2.09 µM,4.7 µM,3.55 µM
NC[C@@](O)(c1ccc(Cl)cc1)c1ccc(-c2cn[nH]c2)cc1,,> 10 µM,3.19 µM,,,4.13 µM,2.36 µM,1.85 µM and 1.45 µM,2.51 µM and 2.05 µM,2.86 µM,2.41 µM and 0.824 µM,1.44 µM,3.75 µM and 1.82 µM,1.01 µM,0.0445 µM and 0.0376 µM,0.298 µM and 0.328 µM,1.4 µM,3.2 µM,3.48 µM and 2.2 µM,1.7 µM
C=C1N(C)c2ccc(Cl)cc2C1(C)C,69.2 µM,29.5 µM,17.5 µM,> 100 µM,> 100 µM,8.85 µM,62.5 µM,22.9 µM,35.8 µM,> 100 µM,12.9 µM,3.52 µM,8.75 µM,19.6 µM,3.72 µM,6.41 µM,4.83 µM,11.7 µM,34.8 µM,2.33 µM
S=C(N/N=C(/c1ccccc1)c1ccccn1)Nc1cccc(Cl)c1,0.0383 µM,0.793 µM and 2.66 µM,1.91 µM and 1.76 µM,4.38 µM,15.3 µM,0.162 µM,2.97 µM and 5.99 µM,13 µM,2.51 µM and 3.86 µM,3.67 µM and 15.9 µM,< 0.001 µM,0.00475 µM,0.786 µM,1.12 µM,1.65 µM,,1.1 µM,,0.0619 µM,0.0152 µM
Cc1ccccc1/C=C1\CN(C(=O)OC(C)(C)C)C/C(=C\c2ccccc2C)C1=O,12.6 µM,4.42 µM,4.57 µM,65.1 µM,4.38 µM,8.8 µM,3.64 µM,5.75 µM,3.21 µM,14.1 µM,2.9 µM,1.9 µM,1.81 µM,1.94 µM,1.9 µM,1.66 µM,2.6 µM,2 µM,3.49 µM,2.47 µM
COc1ccc(CNc2nc(NCc3ccc(OC)cc3)c3n[nH]c(C(C)C)c3n2)cc1,15.4 µM,20 µM,22.6 µM,15.9 µM,23.1 µM,6.44 µM,23.5 µM,37.4 µM,> 100 µM,17.5 µM,3.73 µM,4.06 µM,4.46 µM,5.98 µM,9.48 µM,18.6 µM,1.76 µM,5.94 µM,3.59 µM,2.75 µM
CCN(CC)CC(O)C1CCC(c2ccccc2)CC1 (stereo unspecified),82.6 µM,30.9 µM,> 100 µM,> 100 µM,> 100 µM,58 µM,40.2 µM,86.9 µM,45.1 µM,,,,,,,,,,,
O=C(CN1CCN(c2ccc(Cl)cc2)CC1)N1CCN(c2nnc(-c3ccccc3)c(-c3ccccc3)n2)CC1,> 100 µM,,> 100 µM,> 100 µM,> 100 µM,> 100 µM,> 100 µM,> 100 µM,> 100 µM,> 100 µM,21.6 µM,3.42 µM,> 100 µM,7.65 µM,6.68 µM,15 µM,1.75 µM,,5.4 µM,2.33 µM
O=C1c2ccccc2C(=O)c2c1ccc1c2OCO1,,> 100 µM,> 100 µM,> 100 µM,> 100 µM,> 100 µM,> 100 µM,> 100 µM,> 100 µM,> 100 µM,,,,,,,,,,
CC1=CC2C(C(C)C)CC1C1C(=O)OC(=O)C21 (stereo unspecified),,> 100 µM,> 100 µM,> 100 µM,> 100 µM,77.8 µM,> 100 µM,> 100 µM,> 100 µM,> 100 µM,,,,,,,,,,

# From PubChem BioAssay (NCI)
